Experimental data from patent publication US20260256789A1, “METHODS FOR TREATMENT OF CANCER” (Frontier Medicines Corporation, priority 2022, published 2026).

Molecular target: T1, KRAS G12C (GMPPNP-loaded) and cRAF Ras-binding domain (Homo sapiens, UniProt P01116, C118S/C51S/C80L/G12C)
T1 construct: truncated version comprising amino acids 1-169
Experiment: Inhibition of KRAS G12C and cRAF binding (AlphaScreen)
Settings: KRAS G12C preloaded with GTP analogue GMPPNP, 2 hours preincubation
Summary of the method: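 Compounds (10-point, 1:3 from 50 μM; 2% DMSO) were incubated 2 h at room temperature with 0.5 nM GMPPNP-preloaded truncated Cys-light KRAS G12C, then 60-90 min with 0.75 nM GST-RBD of cRAF and AlphaScreen beads. Signal at 570 nm gave IC50 by 4-parameter regression, and a biotin-AviTag-GST counter assay excluded interference with the AlphaScreen readout.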

T1 sequence (P01116 1-169 isoform P01116-2 G12C/C51S/C80L/C118S): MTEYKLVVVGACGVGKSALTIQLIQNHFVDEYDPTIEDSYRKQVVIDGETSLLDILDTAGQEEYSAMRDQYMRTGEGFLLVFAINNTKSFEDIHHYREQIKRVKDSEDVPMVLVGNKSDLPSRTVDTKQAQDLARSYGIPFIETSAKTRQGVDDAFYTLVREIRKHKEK

Structure (SMILES) | IC50 [nM]
C=CC(=O)N1CC[C@@H](N(C)c2nc(OC[C@@]34CCCN3C[C@H](F)C4)nc3c(F)c(-c4cccc(Cl)c4C4CC4)ncc23)[C@H]1C [Example 236] | 100 to 500
C=CC(=O)N1CC(CN(C)c2nc(OC[C@@]34CCCN3C[C@H](F)C4)nc3c(F)c(-c4nc(N)cc5cccc(Cl)c45)ncc23)C1 [Example 73, 1-(3-(((7-(3-amino-8-chloroisoquinolin-1-yl)-8-fluoro-2-(((2R,7aS)-2-fluorohexahydro-1H-pyrrolizin-7a-yl)methoxy)pyrido[4,3-d]pyrimidin-4-yl)(methyl)amino)methyl)azetidin-1-yl)prop-2-en-1-one] | 10 to 100
C=CC(=O)N1CC[C@@H](N(C)c2nc(OC[C@@]34CCCN3C[C@H](F)C4)nc3c(F)c(-c4cccc(OC)c4C4CC4)ncc23)C1 [Example 189] | ≥ 500
CN1CC[C@H]1/C=C/C(=O)N1CC[C@@H](N(C)c2nc(OC[C@@]34CCCN3C[C@H](F)C4)nc3c(F)c(-c4nc(N)cc5cccc(Cl)c45)ncc23)C1 (single isomer, unassigned) [Example 6] | < 10
C=CC(=O)N1CC[C@@H](N(C)c2nc(OC[C@@]34CCCN3C[C@H](F)C4)nc3c(F)c(-c4cccc(Cl)c4C(F)(F)F)ncc23)C1 [Example 255] | 100 to 500
CN(c1nc(OC[C@@]23CCCN2C[C@H](F)C3)nc2c(F)c(-c3nc(N)cc4cccc(Cl)c34)ncc12)[C@@H]1CCN(C(=O)/C=C/c2nc(C(C)(C)O)no2)C1 [Example 93] | < 10
CN(c1nc(OC[C@@]23CCCN2C[C@H](F)C3)nc2c(F)c(-c3nc(N)cc4cccc(F)c34)ncc12)[C@@H]1CCN(C(=O)/C=C/c2nc(C(C)(F)F)no2)C1 [Example 92] | < 10
C=CC(=O)N1CC[C@@H](N(C)c2nc(OC[C@@]34CCCN3C[C@H](F)C4)nc3c(F)c(-c4cccc(C(F)F)c4C4CC4)ncc23)C1 [Example 195] | ≥ 500

The remaining lines, values ahead:

IC50 [nM] | Structure (SMILES)
100 to 500 | C=CC(=O)N1CC[C@@H](N(C)c2nc(OC[C@@]34CCCN3C[C@H](F)C4)nc3c2CC(C)C(c2nc(N)cc(C)c2C(F)(F)F)C3)C1 (stereo partly drawn) [Example 68, 1-((3R)-3-((7-(6-amino-4-methyl-3-(trifluoromethyl)pyridin-2-yl)-2-(((2R,7aS)-2-fluorohexahydro-1H-pyrrolizin-7a-yl)methoxy)-6-methyl-5,6,7,8-tetrahydroquinazolin-4-yl)(methyl)amino)pyrrolidin-1-yl)prop-2-en-1-one]
100 to 500 | Cc1noc(/C=C/C(=O)N2CC[C@@H](N(C)c3nc(OC[C@@]45CCCN4C[C@H](F)C5)nc4c3C[C@H](C)[C@@H](c3nc(N)cc(C)c3C(F)(F)F)C4)C2)n1 [Example 81, (E)-1-((R)-3-(((6S,7S)-7-(6-amino-4-methyl-3-(trifluoromethyl)pyridin-2-yl)-2-(((2R,7aS)-2-fluorotetrahydro-1H-pyrrolizin-7a(5H)-yl)methoxy)-6-methyl-5,6,7,8-tetrahydroquinazolin-4-yl)(methyl)amino)pyrrolidin-1-yl)-3-(3-methyl-1,2,4-oxadiazol-5-yl)prop-2-en-1-one]
100 to 500 | Cc1cc(N)nc(-c2ncc3c(N(C)[C@@H]4CCN(C(=O)/C=C/CN5CCOCC5)C4)nc(OC[C@@]45CCCN4C[C@H](F)C5)nc3c2F)c1C(F)(F)F [Example 120]
10 to 100 | C=CC(=O)N1CC[C@@H](N(C)c2nc(OC[C@@]34CCCN3C[C@H](F)C4)nc3c(F)c(-c4nc(N)cc(C)c4C(F)(F)F)ncc23)C1 [Example 72, 1-((R)-3-((7-(6-amino-4-methyl-3-(trifluoromethyl)pyridin-2-yl)-8-fluoro-2-(((2R,7aS)-2-fluorotetrahydro-1H-pyrrolizin-7a(5H)-yl)methoxy)pyrido[4,3-d]pyrimidin-4-yl)(methyl)amino)pyrrolidin-1-yl)prop-2-en-1-one]
